Results: PMC3916150 (Journal of medicinal chemistry, 2013)
Read-outs that look alike come from different tables or passages of the source.

How the values were obtained:
human RXR = biological target: T1, human RXR (Homo sapiens, UniProt P19793); assay: RXR mammalian two-hybrid; details: for RXR-mediated transcriptional activity: data in Figures 4 and 5 (M2H and RXRE assays); for RXR binding and homodimerization (luciferase output) compared to compound 1: 24 h
T1 sequence (P19793 1-462) 1: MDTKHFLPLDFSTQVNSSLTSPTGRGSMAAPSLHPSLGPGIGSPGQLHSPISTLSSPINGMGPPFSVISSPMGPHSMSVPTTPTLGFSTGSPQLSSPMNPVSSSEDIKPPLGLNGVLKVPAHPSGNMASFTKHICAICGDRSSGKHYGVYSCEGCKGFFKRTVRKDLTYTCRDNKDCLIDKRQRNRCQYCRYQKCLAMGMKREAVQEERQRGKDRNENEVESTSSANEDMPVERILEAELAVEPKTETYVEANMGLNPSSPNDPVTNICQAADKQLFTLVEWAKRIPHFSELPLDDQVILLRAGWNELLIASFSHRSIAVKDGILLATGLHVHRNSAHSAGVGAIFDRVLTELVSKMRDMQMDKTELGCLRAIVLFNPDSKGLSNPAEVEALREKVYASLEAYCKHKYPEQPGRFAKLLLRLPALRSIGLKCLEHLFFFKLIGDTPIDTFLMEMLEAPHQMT
T1 sequence (P19793 1-462) 2: T1 sequence (P19793 1-462) 1

human RARα = biological target: T2, human RARα (Homo sapiens, UniProt P10276); assay: RAR/RARE-luciferase reporter assay in HCT-116 cells; details: RARE-luciferase, versus all-trans retinoic acid
T2 sequence (P10276 1-462): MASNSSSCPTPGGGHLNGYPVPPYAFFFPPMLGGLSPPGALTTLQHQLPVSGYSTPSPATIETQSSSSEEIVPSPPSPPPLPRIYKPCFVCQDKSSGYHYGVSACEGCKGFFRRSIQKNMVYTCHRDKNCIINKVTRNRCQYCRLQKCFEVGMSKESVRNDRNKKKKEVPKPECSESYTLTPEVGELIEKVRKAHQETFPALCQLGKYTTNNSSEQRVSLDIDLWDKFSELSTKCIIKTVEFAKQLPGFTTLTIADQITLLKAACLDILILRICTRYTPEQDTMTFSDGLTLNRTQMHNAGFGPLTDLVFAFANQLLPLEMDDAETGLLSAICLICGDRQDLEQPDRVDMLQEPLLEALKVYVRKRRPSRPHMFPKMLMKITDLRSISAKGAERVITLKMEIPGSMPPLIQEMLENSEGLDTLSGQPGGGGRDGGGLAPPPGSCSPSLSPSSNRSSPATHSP

[1] = tested on: HuT-78 (human T-cell lymphoma) cells; assay: Caspase-Glo 3/7 apoptosis assay in CTCL cells; format: cell-based; details: 100 nM
VDR-RXR = details: for inhibition of VDR activity compared with compound 1: both assays (10^-6 M and 10^-7 M), ER6 VDRE
human RXRα = biological target: T3, human RXRα (Homo sapiens, UniProt P19793); assay: RXRE-luciferase reporter transcription assay in HCT-116 cells; format: cell-based; details: 25 nM and 100 nM (both assays), HCT-116, Figure 5A and B
T3 sequence (P19793 1-462): T1 sequence (P19793 1-462) 1

[2] = 100 nM analog + 1 nM 1,25D, Fig. 7C
[3] = 100 nM analog + 1 nM 1,25D, Fig. 7E
[4] = 1,000 nM analog + 1 nM 1,25D, Fig. 7B
[5] = 1,000 nM analog + 1 nM 1,25D, Fig. 7F
[6] = 100 nM analog + 1 nM 1,25D, Fig. 7A

Molecule | RXR-mediated transcriptional activity (human RXR) | RAR agonist activity compared to bexarotene (human RARα) | apoptosis compared to ethanol vehicle control ([1]; 24 hours) | DR3 VDRE-mediated activity versus 1,25D alone (VDR-RXR; [2]) | CYP24 natural promoter 1,25D-VDR transactivation versus 1,25D alone (VDR-RXR; [3]) | ER6 VDRE-mediated activity versus 1,25D alone (VDR-RXR; [4]) | CYP24 natural promoter 1,25D-VDR transactivation versus 1,25D alone (VDR-RXR; [5]) | apoptosis compared to ethanol vehicle control ([1]; 48 hours) | inhibition of VDR activity compared with compound 1 (VDR-RXR) | RXR binding and homodimerization (luciferase output) compared to compound 1 (human RXR; 25 nM, HCT-116, Figure 4A) | RXR binding and homodimerization (luciferase output) compared to compound 1 (human RXR; 100 nM, HCT-116, Figure 4B) | ER6 VDRE-mediated activity versus 1,25D alone (VDR-RXR; [6]) | DR3 VDRE-mediated activity versus 1,25D alone (VDR-RXR; 1,000 nM analog + 1 nM 1,25D, Fig. 7D) | RXRE-mediated transcriptional activity compared to compound 1 (human RXRα)
Cc1cc2c(cc1-c1cccc(/C=C/C(=O)O)c1)C(C)(C)CCC2(C)C [Compound 12, (E)-3-(3-(1,2,3,4-tetrahydro-1,1,4,4,6-pentamethylnaphthalen-7-yl)phenyl)acrylic acid, reference compound] | consistently lower RXR-mediated transcriptional activity | slightly lower RAR-directed activity | greater than the ethanol vehicle control | significantly lower | significant inhibiton | significantly lower | significant inhibiton | – | – | – | – | – | – | –
Cc1cc2c(cc1C1(c3ncc(C(=O)O)cn3)CC1)C(C)(C)CCC2(C)C [Compound 14] | – | greater RAR agonist activity | greater than the ethanol vehicle control | – | – | significantly lower | – | greater than the ethanol vehicle control | inhibited VDR activity less | – | – | – | – | –
Methyl 2-(1-(1,2,3,4-tetrahydro-1,1,4,4,6-pentamethylnaphthalen-7-yl)vinyl)pyridine-5-carboxylate [Compound 13] | – | greater RAR agonist activity | greater than the ethanol vehicle control | – | – | significantly lower | – | greater than the ethanol vehicle control | inhibited VDR activity less | – | – | – | – | –
Cc1ccc(/C=C/C(=O)O)cc1-c1cc2c(cc1C)C(C)(C)CCC2(C)C [Compound 15, (E)-3-(3-(1,2,3,4-tetrahydro-1,1,4,4,6-pentamethylnaphthalen-7-yl)-4-methylphenyl)acrylic acid] | consistently more active | greater RAR agonist activity | – | – | – | significantly lower | – | – | – | greater activity than compound 1 | high activity compared with compound 1 | significantly lower | significantly higher | –
C=C(c1ccc(C(=O)O)c(F)c1)c1cc2c(cc1C)C(C)(C)C=CC2(C)C [Compound 19, 2-Fluoro-4-(1-(1,4-dihydro-1,1,4,4,6-pentamethylnaphthalen-7-yl)vinyl)benzoic acid] | consistently lower RXR-mediated transcriptional activity | greater RAR agonist activity | greater than the ethanol vehicle control | – | significant inhibiton | significantly lower | – | greater than the ethanol vehicle control | – | – | – | – | – | –
Cc1cc2c(cc1-c1cc(/C=C/C(=O)O)ccc1O)C(C)(C)C=CC2(C)C [Compound 18, (2E)-3-(3-(1,4-dihydro-1,1,4,4,6-pentamethylnaphthalen-7-yl)-4-hydroxyphenyl)acrylic acid] | consistently more active | approximately equal to bexarotene | greater than the ethanol vehicle control | – | significant inhibiton | significantly lower | significant inhibiton | greater than the ethanol vehicle control | – | approaching statistical significance | – | – | – | –
Cc1cc2c(cc1-c1cc(/C=C/C(=O)O)ccc1C(F)(F)F)C(C)(C)CCC2(C)C [Compound 16, (E)-3-(4-(trifluoromethyl)-3-(1,2,3,4-tetrahydro-1,1,4,4,6-pentamethylnaphthalen-7-yl)phenyl)acrylic acid] | consistently lower RXR-mediated transcriptional activity | slightly lower RAR-directed activity | greater than the ethanol vehicle control | – | – | significantly lower | – | – | – | – | – | – | – | –
Cc1cc2c(cc1-c1cc(/C=C/C(=O)O)ccc1O)C(C)(C)CCC2(C)C [Compound 11, (E)-3-(3-(1,2,3,4-tetrahydro-1,1,4,4,6-pentamethylnaphthalen-7-yl)-4-hydroxyphenyl)acrylic acid, reference compound] | consistently more active | slightly lower RAR-directed activity | – | – | – | significantly lower | – | – | – | greater activity than compound 1 | high activity compared with compound 1 | significantly lower | – | –
C=C(c1ccc(C(=O)O)cc1)c1cc2c(cc1C)C(C)(C)C=CC2(C)C [Compound 10, 4-[1-(3,5,5,8,8-Pentamethyl-2–5,8-dihydronaphthyl)vinyl]benzoic Acid, reference compound] | – | greater RAR agonist activity | greater than the ethanol vehicle control | – | – | – | – | – | inhibited VDR activity less | – | – | – | – | transcriptional activity consistently above the compound 1 level
Cc1ccc(/C=C/C(=O)O)cc1-c1cc2c(cc1C)C(C)(C)C=CC2(C)C [Compound 17, (2E)-3-(3-(1,4-dihydro-1,1,4,4,6-pentamethylnaphthalen-7-yl)-4-methylphenyl)acrylic acid] | consistently lower RXR-mediated transcriptional activity | greater RAR agonist activity | greater than the ethanol vehicle control | significantly lower | – | significantly lower | – | greater than the ethanol vehicle control | inhibited VDR activity less | – | – | – | – | –
Cc1cc2c(cc1C1(c3ccc(C(=O)O)cn3)CC1)C(C)(C)CCC2(C)C [Compound 9, 6-[1-(3,5,5,8,8-Pentamethyl-5,6,7,8-tetrahydronaphthalen-2-yl)cyclopropyl]nicotinic Acid, reference compound] | – | – | greater than the ethanol vehicle control | – | – | significantly lower | – | greater than the ethanol vehicle control | – | – | – | significantly lower | – | –
